Data published in patent US20240228987A1, “HEXOKINASE-DERIVED PEPTIDES AND THERAPEUTICAL USES THEREOF” (INSERM (INSTITUT NATIONAL DE LA SANTÉ ET DE LA RECHERCHE …, priority 2021, published 2024).
Where a SMILES comes first, the peptide text is derived from it. Where no end group is shown, it is not given here. [ ]: non-standard residue; d: D form. The star is where a group is joined. X1 = CC(C)(C(=O)*)n1cc(-c2cccc(C(F)(F)F)c2)nn1; Nle = CCCC[C@H](N)C(=O)O; Aib = CC(C)(N)C(=O)O

What was measured:
VDAC = target: T1, VDAC (Homo sapiens, UniProt P21796); assay: in-cellulo screening assay: HEK-293 cells transfected with mitoGCaMP2, MJ-induced mitochondrial Ca2+ release through VDAC; type: cell-based; settings: for activity / affinity for VDAC on the screening assay (mitoGCaMP2 fluorescence): MJ 6 mM
T1 construct: HEK-293 cells, expressing VDAC and HK; endogenous in cells; host or cells: HEK-293 (ATCC), transfected only with the Ca2+ probes mitoGCaMP2 / GCaMP2
Protocol: The activity of the designed compounds was assessed on HEK-293 cells transfected with mitoGCaMP2. 40,000 cells per well were seeded in 96-well-microplates coated with Poly-D-Lysine (reference 655946, Greiner Bio-One, France) in 200 μl of DMEM supplemented with 10% FBS and 1% PS. 24 h after seeding, cells were transfected with 50 ng of mitoGCaMP2 plasmid per well using jet-PRIME reagent (Polyplus-transfection S.A, France) according to the manufacturer's recommendations. 48 h after transfection, a first measure of fluorescence was performed using the microplate reader CLARIOstar® (BMG Labtech, France). This measurement represented the basal level of Ca2+ into the mitochondria upon transfection. After a wash with 100 μl of PBS, cells were incubated with a mixture of pre-heated (37° C.) MJ at a final concentration of 6 mM and compounds at the indicated final concentrations in PBS containing 0.1% DMSO and 5% EtOH. After 35 min in a cell incubator, a second measure of fluorescence was performed using the microplate reader CLARIOstar®. This measure represented the level of mitochondrial Ca2+ according to the peptide activity. Compounds were tested in triplicates per microplates and in three or five independent experiments for each peptide. For dose effect curves, compounds were tested in triplicates per microplates and in three independent experiments. Results are expressed as the ratio between the second and first measures and normalized to the conditions without compounds containing only PBS with 0.1% DMSO and 5% EtOH. Results are expressed as the means±SD in histogram plots and dose response curves using GraphPad Prism software (version 8.0.1).
The biological screening of the peptide is based on the ability of methyl jasmonate (MJ) to binds and detaches HK-1 from mitochondrial VDAC in a time and dose dependent manner.^16,20 For this purpose, we developed an in-cellulo screening assay in which HEK-293 cells, expressing VDAC and HK,25 were transfected with GCaMP2, a cytoplasmic Ca2+-sensing probe, or with mitoGCaMP2, the same probe addressed to mitochondrial matrix. […] MJ that removes HK from VDAC was used to induce a Ca2+ release outside mitochondria measured through a drop in mitoGCaMP2 fluorescence and an increase in GCaMP2 fluorescence in cells.

[1] = target: Elastase (from porcine pancreas, EC 3.4.21.36) (Sus scrofa, UniProt P00772); settings: Tris·HCl buffer pH 8, 37° C., peptides without Tat
Protocol: A stock solution of Elastase at 1 mg/mL was prepared in Tris·HCl buffer (50 mM, pH 8, containing 0.5 mM CaCl2,). The stock solution was diluted at 0.94 mg/mL with 658 μL of stock solution in 42 μL of Tris·HCl buffer. All peptides were dissolved in DMSO to prepare a 6.66 mmol/L stock solution. A more diluted peptide solution (0.666 mmol/L) was prepared with 70 μL of stock solution in 630 μL of Tris·HCl buffer pH 8. In a 1.5 mL Eppendorf, 890 μL of Tris·HCl pH 8 was introduced followed by 100 μL of peptide solution (0.666 mmol/L) and incubated for 15 min at 37° C. prior to degradation. Then, 10 μL of Elastase solution (0.94 mg/mL) was added. The reaction mixture was incubated up to 4h at 37° C. with shaking at 1000 rpm. Aliquots (50 μL) were taken at different time points, quenched with 450 μL of MeOH, and centrifuged for 20 min (14000 rpm) at 4° C. The supernatant was transferred into an injection vial and analyzed by LC-MS with an eluting program of 0.1% formic acid in water and 0.1% formic acid in acetonitrile (see analytical data section). The relative concentrations of the remaining peptides and the cleavage products were calculated by integration of the corresponding peak in the HPLC chromatogram/MS trace. A control peptide solution was prepared without the enzyme. […] All proteolytic degradation experiments were carried out in triplicate.

[2] = in-vitro metabolic stability in rat serum; type: in vitro ADME; settings: 25% (v/v) rat serum
Protocol: FIG. 10: Study of the stability of NHKI derived sequence (3c′, 7a′, 7d′, 7f′-g′) towards rat serum (N=3 independent experiments). All peptides were tested at a concentration of 66.6 μmol/L in presence of 25% (v/v) of rat serum and water after incubation at 37° C. for 24 h. Errors bars show the standard deviation.
For each peptide, a stock solution in DMSO was prepared at a 6.66 mmol/L concentration. 70 μL of the solution were taken out and added to 630 μL of MilliQ water to make an aqueous peptide solution (0.666 mmol/L). The reaction consisted in 325 μL of MilliQ water and 125 μL of non-diluted rat serum pre-incubated at 37° C. for about 10-15 min before addition of 50 μL the peptide solution at 0.666 mmol/L. The mixture was incubated at 37° C. with shaking at 1000 rpm. Aliquots (25 μL) were taken at different time points (0 min, 5 min, 15 min, 30 min, 1h, 2h, 3h, 5h, 7h, 24h, 48h) and enzymatic reaction was quenched with 225p L of MeOH to precipitate all serum proteins. The Eppendorf tube was directly centrifuged (14000 rpm) for 20 min at 4° C. to remove precipitated proteins by pelleting.

sciatic nerve explants = assay: sciatic nerve explant culture and CARS imaging (demyelination); type: cell-based, mouse; settings: 3 μM
Description: FIG. 11: Effects of NHKI-derived peptides 3c, 5x, 7d and 7g on sciatic nerve explants cultured in medium supplemented with serum. (A) Representative CARS images showing myelin (green) of an intact sciatic nerve collected and immediately fixed in 4% PFA and a sciatic nerve explant cultured in medium supplemented with FBS referred as negative control. (B) Representative CARS images showing myelin (green) of sciatic nerve explants cultured in medium supplemented with FBS containing NHKI-derived peptides at 3 μM for 24 h. All nerves are represented in longitudinal sections. Healthy myelin sheath (white arrows), Node of Ranvier (white stars) and myelin ovoids (orange arrows) are illustrated. Scale bar: 20 μm. (C) Graph showing the percentage of damaged fibers in intact nerves (white plot), negative controls (light grey plot), 3c and its analog 7d (blue plots) 5x and its analog 7g (red plots). (N=3 independent experiments). Results are expressed as means±SD. Statistical analysis using one-way ANOVA followed by Dunnett's multiple comparison tests. *p<0.05, **p<0.01. ns, non-significant.
Twelve-week-old C57BL6/J mice were euthanized using Pentobarbital (54.7 mg/ml, 100 mg/kg, Centravet, France). First, sciatic nerves were collected, washed in PBS and their epineurium was removed. Next, 5 mm long nerves were put in 24-well microplates (NUNC, Thermo Fisher Scientific, France) in 500 μl of DMEM supplemented with 1% PS and with or without 10% FBS containing the compounds at 3 μM containing 0.1% DMSO, and further incubated in a humidified chamber at 37° C. and 5% CO2. Negative controls consisted in sciatic nerve explant cultures without compounds (only DMEM supplemented with 1% PS, with or without 10% FBS and 0.1% DMSO). Intact sciatic nerves collected and immediately fixed in 4% PFA served as a control of healthy myelin sheath for CARS imaging. After 24 h in culture, sciatic nerve explants were washed three times with PBS and fixed for 1 h in 4% PFA aqueous solution (Electron Microscopy Sciences, Thermo Fisher Scientific, France) at room temperature. All CARS images were acquired with a two-photon microscope LSM 7 MP coupled to an OPO (Zeiss, France) complemented by a delay line. A ×20 water immersion objective (W Plan Apochromat DIC VIS-IR, Zeiss, France) was used for image acquisition. Each acquisition was conducted in three independent experiments. For each experiment, three ROIs per conditions were used to quantify the percentage of damaged fibers per field using Zen software (Zen 2.3 lite, Zeiss, France). Results are expressed as means±SD.
Next, we tested NHKI-derived compound activity on sciatic nerve explant cultures in which Schwann cells demyelinate through a mechanism involving mitochondrial Ca2+ release through VDAC1.44,45,9 Intact myelin was imaged and quantified in sciatic nerve explants using Coherent Anti-Stokes Raman Scattering (CARS) nonlinear microscopy. […] Demyelination was quantified by measuring the percentage of damaged fibers, i.e. displaying ovoid formation, over the total number of fibers imaged.

Schwann cells = settings: cited from earlier work
[3] = compounds at 3 μM, compared with 3c, 4d or 5x
[4] = 24 h, medium supplemented with serum

T1 sequence (P21796 2-283): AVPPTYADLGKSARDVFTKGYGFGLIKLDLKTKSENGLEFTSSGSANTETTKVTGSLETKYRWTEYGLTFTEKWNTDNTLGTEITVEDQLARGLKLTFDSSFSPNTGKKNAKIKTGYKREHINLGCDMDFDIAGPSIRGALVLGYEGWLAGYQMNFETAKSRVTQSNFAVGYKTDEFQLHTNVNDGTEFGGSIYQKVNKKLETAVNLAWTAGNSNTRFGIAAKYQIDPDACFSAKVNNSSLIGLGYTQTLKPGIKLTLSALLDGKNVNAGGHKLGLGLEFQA
Elastase (from porcine pancreas, EC 3.4.21.36), sequence (P00772 27-266): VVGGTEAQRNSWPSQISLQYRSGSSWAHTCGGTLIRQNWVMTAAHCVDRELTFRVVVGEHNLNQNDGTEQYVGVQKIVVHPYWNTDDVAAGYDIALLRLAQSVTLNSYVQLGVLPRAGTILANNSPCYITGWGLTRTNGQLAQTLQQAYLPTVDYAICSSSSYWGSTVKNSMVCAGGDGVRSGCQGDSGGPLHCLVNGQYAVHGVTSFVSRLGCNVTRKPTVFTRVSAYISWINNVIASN

## CCCC[C@H](NC(=O)[C@H](CCC(N)=O)NC(=O)[C@@H]1CCCN1C(=O)[C@@H]1CCCN1C(=O)[C@H](CCCNC(=N)N)NC(=O)[C@H](CCCNC(=N)N)NC(=O)[C@H](CCCNC(=N)N)NC(=O)[C@H](CCC(N)=O)NC(=O)[C@H](CCCNC(=N)N)NC(=O)[C@H](CCCNC(=N)N)NC(=O)[C@H](CCCCN)NC(=O)[C@H](CCCCN)NC(=O)[C@H](CCCNC(=N)N)NC(=O)CNC(C)=O)C(=O)N[C@H](C(=O)N[C@@H](C)C(=O)N[C@@H](C)C(=O)N[C@@H](CCC(N)=O)C(=O)N[C@@H](CC(C)C)C(=O)N[C@@H](CC(C)C)C(=O)N[C@@H](C)C(=O)N[C@@H](Cc1ccc(O)cc1)C(=O)N[C@@H](Cc1ccc(O)cc1)C(=O)N[C@@H](Cc1ccccc1)C(=O)N[C@H](C(=O)N[C@@H](CCC(=O)O)C(=O)N[C@@H](CC(C)C)C(=O)N[C@@H](CCCCN)C(N)=O)[C@@H](C)O)[C@@H](C)CC [2a]
VDAC
  IC50: 13.9 ± 3.1 µM

## CC(=O)N[C@@H](C)C(=O)N[C@@H](CCC(N)=O)C(=O)N[C@@H](CC(C)C)C(=O)N[C@@H](CC(C)C)C(=O)NC(C)(C)C(=O)N[C@@H](Cc1ccc(O)cc1)C(=O)N[C@@H](Cc1ccc(O)cc1)C(=O)N[C@@H](Cc1ccccc1)C(=O)N[C@H](C(=O)N[C@@H](CCC(=O)O)C(=O)N[C@@H](CC(C)C)C(=O)N[C@@H](CCCCN)C(N)=O)[C@@H](C)O [7a′] (Ac-AQLL[Aib]YYFTELK-NH2; N-terminus and C-terminus assumed)
[1]
  stability towards elastase: improve their stability towards elastase
[2]; 37° C., after 24 h, read-out: remaining compound in rat serum
  remaining at 24 h, 66.6 µmol/L: ~65%

## CC(=O)N[C@@H](C)C(=O)NC(C)(C)C(=O)N[C@@H](C)C(=O)NC(C)(C)C(=O)N[C@@H](C)C(=O)N[C@@H](CCC(N)=O)C(=O)N[C@@H](CC(C)C)C(=O)N[C@@H](CC(C)C)C(=O)NC(C)(C)C(=O)N[C@@H](Cc1ccc(O)cc1)C(=O)N[C@@H](Cc1ccc(O)cc1)C(=O)N[C@@H](Cc1ccccc1)C(=O)N[C@H](C(=O)N[C@@H](CCC(=O)O)C(=O)N[C@@H](CC(C)C)C(=O)N[C@@H](CCCCN)C(N)=O)[C@@H](C)O [7d′] (Ac-A[Aib]A[Aib]AQLL[Aib]YYFTELK-NH2; N-terminus and C-terminus assumed)
[1]
  stability towards elastase: improve their stability towards elastase

## C[C@H](NC(=O)[C@H](Cc1c[nH]c2ccccc12)NC(=O)[C@H](Cc1c[nH]c2ccccc12)NC(=O)[C@H](CCC(N)=O)NC(=O)[C@H](C)NC(=O)C(C)(C)n1cc(-c2cccc(C(F)(F)F)c2)nn1)C(=O)N[C@@H](Cc1ccc(O)cc1)C(=O)N[C@@H](Cc1ccc(O)cc1)C(=O)N[C@@H](Cc1ccccc1)C(=O)N[C@H](C(=O)N[C@@H](CCC(=O)O)C(=O)N[C@@H](Cc1c[nH]c2ccccc12)C(=O)N[C@@H](CCCCN)C(=O)NCC(=O)N[C@@H](CCCNC(=N)N)C(=O)N[C@@H](CCCCN)C(=O)N[C@@H](CCCCN)C(=O)N[C@@H](CCCNC(=N)N)C(=O)N[C@@H](CCCNC(=N)N)C(=O)N[C@@H](CCC(N)=O)C(=O)N[C@@H](CCCNC(=N)N)C(=O)N[C@@H](CCCNC(=N)N)C(=O)N[C@@H](CCCNC(=N)N)C(=O)N1CCC[C@H]1C(=O)N1CCC[C@H]1C(=O)N[C@@H](CCC(N)=O)C(N)=O)[C@@H](C)O [7f] (X1-AQWWAYYFTEWKGRKKRRQRRRPPQ-NH2)
[1]
  stability towards elastase: most stable compound
VDAC
  IC50: 2.6 ± 0.6 µM

## C[C@H](NC(=O)C(C)(C)n1cc(-c2cccc(C(F)(F)F)c2)nn1)C(=O)N[C@@H](CCC(N)=O)C(=O)N[C@@H](Cc1c[nH]c2ccccc12)C(=O)N[C@@H](Cc1c[nH]c2ccccc12)C(=O)NC(C)(C)C(=O)N[C@@H](Cc1ccc(O)cc1)C(=O)N[C@@H](Cc1ccc(O)cc1)C(=O)N[C@@H](Cc1ccccc1)C(=O)N[C@H](C(=O)N[C@@H](CCC(=O)O)C(=O)N[C@@H](Cc1c[nH]c2ccccc12)C(=O)N[C@@H](CCCCN)C(=O)NCC(=O)N[C@@H](CCCNC(=N)N)C(=O)N[C@@H](CCCCN)C(=O)N[C@@H](CCCCN)C(=O)N[C@@H](CCCNC(=N)N)C(=O)N[C@@H](CCCNC(=N)N)C(=O)N[C@@H](CCC(N)=O)C(=O)N[C@@H](CCCNC(=N)N)C(=O)N[C@@H](CCCNC(=N)N)C(=O)N[C@@H](CCCNC(=N)N)C(=O)N1CCC[C@H]1C(=O)N1CCC[C@H]1C(=O)N[C@@H](CCC(N)=O)C(N)=O)[C@@H](C)O [7g] (X1-AQWW[Aib]YYFTEWKGRKKRRQRRRPPQ-NH2; N-terminus assumed)
VDAC; [3]
  activity / affinity for VDAC on the screening assay (mitoGCaMP2 fluorescence): significant higher activity
VDAC; compounds at 10 μM
  activity / affinity for VDAC on the screening assay (mitoGCaMP2 fluorescence): significantly more active than compounds 3c and 5x
Sciatic nerve explants; [4]
  nerve fibers damage: significantly decreased nerve fibers damage
  preservation of the myelin sheath: significantly preserve the myelin sheath at a similar level to an intact nerve
Sciatic nerve explants; 24h, serum-free medium
  myelin sheath pattern: same myelin sheath pattern as an intact nerve
  percentage of damaged fibers: significantly reduced the level of damaged fibers

## CC(C)CCC[C@@H](C)[C@H]1CC[C@H]2[C@@H]3CCC4=CC(=NO)CC[C@]4(C)[C@H]3CC[C@]12C [olesoxime]
Schwann cells
  demyelination: block demyelination
  mitochondrial calcium release: prevent mitochondrial calcium release

## AQLWAYYYTEWK [5t, tested peptide also contains Tat]
VDAC; [3]
  activity / affinity for VDAC on the screening assay (mitoGCaMP2 fluorescence): beneficial effect

## AQWLAYYLTELK [5l, tested peptide also contains Tat]
VDAC; [3]
  activity / affinity for VDAC on the screening assay (mitoGCaMP2 fluorescence): beneficial effect

## AQWLAYYYTELK [5m, tested peptide also contains Tat]
VDAC; [3]
  activity / affinity for VDAC on the screening assay (mitoGCaMP2 fluorescence): equally accommodated

## AQWWAYYFTEWK [5x, tested peptide also contains Tat]
VDAC; [3]
  activity / affinity for VDAC on the screening assay (mitoGCaMP2 fluorescence): more significant
Sciatic nerve explants; 24h, serum-free medium
  percentage of damaged fibers: significantly reduced the level of damaged fibers

## Ac-AQLLAYYFTELKGRKKRRQRRRPPQ-NH2 [3c]
[2]; 25% rat serum, after 5 min, preliminary experiment, read-out: remaining peptide in rat serum
  remaining at 5 min, 66.6 µmol/L: 10%
Sciatic nerve explants; 24h, serum-free medium
  percentage of damaged fibers: same percentage of damaged fibers as the negative control

## [Nle]IAAQLWAYYY [6o]
VDAC; [3]
  activity / affinity for VDAC on the screening assay (mitoGCaMP2 fluorescence): equally accommodated

## [Nle]IAAQWLAYYY [6m]
VDAC; [3]
  activity / affinity for VDAC on the screening assay (mitoGCaMP2 fluorescence): equally accommodated

## [Nle]IAAQWWAYYL [6q]
VDAC; [3]
  activity / affinity for VDAC on the screening assay (mitoGCaMP2 fluorescence): more significant
